Results published in patent US20120178124A1, “STEROL SIDE CHAIN-CLEAVING ENZYME PROTEIN AND USE THEREOF” (MITSUBISHI CHEMICAL CORPORATION, priority 2009, published 2012).

T1: CYP11A (Homo sapiens, UniProt P05108)
T1 construct: A 1.45-kb CYP11A1 gene fragment amplified as a result of the above-described reaction; expressed in transfected cells; host or cells: Escherichia coli BL21(DE3), plasmid pCYP11A-ARX (strain BL21CYP11)
T1 sequence (P05108 40-521): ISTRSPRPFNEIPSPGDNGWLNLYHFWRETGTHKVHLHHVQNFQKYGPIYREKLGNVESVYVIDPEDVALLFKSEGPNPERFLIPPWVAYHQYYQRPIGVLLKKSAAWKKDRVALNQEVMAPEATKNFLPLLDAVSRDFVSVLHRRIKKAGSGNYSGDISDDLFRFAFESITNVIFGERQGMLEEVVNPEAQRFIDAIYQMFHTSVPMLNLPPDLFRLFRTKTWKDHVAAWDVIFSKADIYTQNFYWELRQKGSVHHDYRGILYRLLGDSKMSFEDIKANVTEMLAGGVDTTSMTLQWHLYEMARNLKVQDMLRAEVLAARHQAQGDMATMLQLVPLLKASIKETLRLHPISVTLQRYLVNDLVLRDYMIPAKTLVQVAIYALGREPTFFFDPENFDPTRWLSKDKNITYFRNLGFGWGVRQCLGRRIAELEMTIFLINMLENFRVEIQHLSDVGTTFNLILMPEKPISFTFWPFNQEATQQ

B1: Novosphingobium aromaticivorans ATCC 700278 P450scc CYP204A1, wild type, SEQ ID NO: 23 (Novosphingobium aromaticivorans DSM 12444) (protein)
chain: MARAATAAGNGLPLLDGGVPLLGHLAQFFRDPVSVLKRGYRSKGRLFAMNFMGQRMNVMLGPEHNRFFFEETDKLLSIRESMPFFLKMFSPEFYSFAEMDEYLRQRSIIMPRFKAASMKQYVPVMVEESLNLVERLGEEGEFDLIPTLGPVVMDIAAHSFMGREFHEKLGHEFFELFRDFSGGMEFVLPLWLPTPKMVKSQRAKRKLHAILQSWIDKRRAAPLDPPDFFQTMIETKYPDGRPVPDEIIRHLILLLVWAGHETTAGQVSWALADLLQNPDYQKVLRGEISSLLGGSDGRDLGWEQAVAMEKMDLALRETERLHPVAYMLSRKARADIERDGYVIRKGEFVLLAPSVSHRMEETFRNPDAYDPERFNPANPDAQIESNSLIGFGGGVHRCAGVNFARMEMKVLVAILLQNFDMELMDEVRPIAGASTYWPAQPCRVRYRRRKLDGSEAGADMAALARAAGCPAHT

What was measured:
CYPSS204A = assay: Conversion reaction of substrates by Escherichia coli expression strain BP215; assay type: cell-based, Sphingomonas subterranea NBRC 16086; settings: strain BP215, 28° C., 5 hours; for Conversion rate: to progesterone, pregnenolone or 7-dehydropregnenolone
Procedure: The temperature conditions applied during the PCR were 95° C./5 min, 30 cycles of (98° C./30 sec, 60° C./30 sec, and 68° C./2 min), and 68° C./10 min.
Analysis conditions: Using Chromolith speed rod RP18e (50×4.6 mm) column, 50%→100% CH3CN gradient (0 to 3 min) and 100% CH3CN (3 to 8 min) were used as a mobile phase, and detection was carried out at a flow rate of 2 ml/min using CAD™ (Charged Aerosol Detection) and MS.

CYP204A1 = settings: for Conversion rate: strain BP172, same reaction as Example 6 (28° C., 5 hours)
Procedure: Novosphingobium aromaticivorans (ATCC 700278) was inoculated into an L medium, and it was then cultured at 30° C. for 2 days. Thereafter, genomic DNA was extracted from the cell mass obtained in the same manner as that of Example 1. A fragment comprising a CYPSS204A1 gene and a ferredoxin gene located downstream thereof was amplified from the above-described genomic DNA by using a primer CYP-5F (SEQ ID NO: 9) and a primer CYP-6R (SEQ ID NO: 10) and also using La Taq polymerase (manufactured by Takara Bio INC.). The temperature conditions applied during this operation were 94° C./3 min, 30 cycles of (98° C./20 sec, 63° C./30 sec, and 68° C./2 min), and 72° C./5 min.
Escherichia coli BL21(DE3) was transformed with this plasmid, and the obtained cell strain was named as BP172.
(§1) The Escherichia coli expression strain BP215 was inoculated into 2 ml of an M9 mix medium (Na2HPO4: 0.68%, KH2PO4: 0.3%, NaCl: 0.05%, NH4C;: 0.01%, Casamino acid: 1%, D-Glucose: 0.4%, CaCl2: 0.1 mM, MgCl2: 1 mM, Thiamine: 0.002%, FeSO4: 0.1 mM, Carbenicillin: 0.005%), and it was then subjected to shaking culture at 30° C. for 17 hours, so as to obtain pre-culture solution. 0.25 ml of this pre-culture solution was inoculated into 25 ml of the main culture medium (Na2HPO4: 0.68%, KH2PO4: 0.3%, NaCl: 0.05%, NH4Cl: 0.01%, Casamino acid: 1%, CaCl2: 0.1 mM, MgCl2: 1 mM, Thiamine: 0.002%, FeSO4: 0.1 mM, Carbenicillin: 0.005%, Overnight Express™ solution: 7%, 5-Aminolevlic acid: 0.008%) using Overnight Express™ Autoinduction System (Novagen Cat. No. 71300-4), and it was then subjected to shaking culture at 25° C. for 24 hours. 5 ml of the obtained main culture solution was centrifuged (3500 rpm, 10 minutes) to obtain cell mass, and 1 ml of CV2 buffer (50 mM (pH) potassium phosphate buffer containing glycerol: 2%, carbenicillin: 0.005%, and isopropyl β-D-1-thiogalactopyranoside: 0.1 mM) was added to the obtained cell mass. Thereafter, 0.01 ml of the methanol solution of 1% 4-cholesten-3-one and 0.02 ml of an aqueous solution of 25% methyl-β-cyclodextrin were added to the mixed solution, and the obtained mixture was then shaken at 28° C. for 5 hours for the reaction. After completion of the reaction, 4 ml of methanol was added to the reaction solution, and they were then fully mixed. The obtained mixture was centrifuged, and the upper layer was then analyzed by HPLC.
As substrates, 4-cholesten-3-one, cholesterol, 7-dehydrocholesterol, ergosterol, 13-sitosterol, stigmasterol, campesterol, desmosterol, (20S)-20-hydroxycholest-4-en-3-one, (22R)-22-hydroxycholest-4-en-3-one, (20R,22R)-20,22-dihydroxycholest-4-en-3-one, and (20R,22S)-20,22-dihydroxycholest-4-en-3-one were used. Each substrate was subjected to the same reaction as that of Example 6, separately, and the generated product was then analyzed by HPLC.

CYP11A = target: T1, CYP11A; assay: Conversion reaction of substrates by CYP11A-expressing Escherichia coli; assay type: cell-based; settings: for Conversion rate: same reaction as Example 6 (28° C., 5 hours)
Procedure: as §1
A commercially available human testis cDNA (Origene Technologies, Inc.) was used as a template, and a CYP11A1 gene was amplified by PCR using a primer CYP11A-1F (SEQ ID NO: 19) and a primer CYP11A-2R (SEQ ID NO: 20), and also using KOD plus polymerase (TOYOBO Co., Ltd.). The temperature conditions applied during the PCR were 94° C./3 min, 30 cycles of (94° C./30 sec, 55° C./60 sec, and 72° C./90sec), and 72° C./5 min.
A 1.45-kb CYP11A1 gene fragment amplified as a result of the above-described reaction was purified using QIAquick PCR purification Kit (manufactured by QIAGEN), and it was then digested with Nde I and Spe I. Thereafter, the digest was ligated to Escherichia coli expression vector pT7NS-camAB, using T4 DNA ligase, and Escherichia coli DH5α was then transformed with the obtained expression vector, so as to construct a plasmid pCYP11A-camAB. Subsequently, using T4 DNA ligase, the previously prepared bovine-derived adrenodoxin reductase protein-adrenodoxin gene (adr-adx) fragment was inserted into and ligated to each of the Spe I and Bam HI sites of the above-described plasmid, and Escherichia coli DH5a was then transformed with the obtained plasmid, so as to construct plasmid pCYP11A-ARX. Thereafter, Escherichia coli BL21(DE3) was transformed with the thus constructed plasmid, and the obtained cell strain was named as BL21CYP11. The used adx-adr fragment was amplified by PCR with a plasmid pKARX (Sawada et. al. Eur. J. Biochem. 265, 950-956,1999) as a template, using primer bAdxR-1F (SEQ ID NO: 21) and primer bAdx-2R (SEQ ID NO: 22), and also using KOD plus polymerase (manufactured by TOYOBO Co., Ltd.). The temperature condition applied during the PCR were 94° C./3 min, 25 cycles of (94° C./30 sec, 60° C./30 sec, and 72° C./120sec), and 72° C./5 min.
Each substrate was subjected to the same reaction as that of Example 6, separately, and the reaction solution was then subjected to liquid separation using 1 ml of ethyl acetate. The reaction product and the substrate were extracted, and were then analyzed by HPLC.

[1] = substrate: CC(C)CCC[C@@H](C)[C@H]1CC[C@H]2[C@@H]3CCC4=CC(=O)CC[C@]4(C)[C@H]3CC[C@]12C; assay: purified protein, by the assay type; settings: other: 4-cholesten-3-one 0.1 to 500 μM, pH 7.5, 15° C., 60 minutes, Lineweaver-Burk plot
[2] = strain BP172, same reaction as Example 6

Row | Molecule | accumulated amount of side-chain cleavage product (CYPSS204A) [mg/L] | added substrate remained (CYPSS204A) [%] | Conversion rate (CYPSS204A) [%] | Conversion rate (CYP204A1) [%] | added substrate remained (CYP11A; same reaction as Example 6) [%] | Conversion rate (CYP11A) [%] | Conversion rate (CYP11A; listed as Cam) [%] | accumulated amount of pregnenolone (CYPSS204A) [mg/L] | accumulated amount of pregnenolone (CYP204A1; [2]) [mg/L] | added substrate remained (CYP204A1; [2]) [%] | accumulated amount of pregnenolone (CYP11A; same reaction as Example 6) [mg/L] | Km [1] [µM]
1 | CC(C)[C@H](C)CC[C@@H](C)[C@H]1CC[C@H]2[C@@H]3CC=C4C[C@@H](O)CC[C@]4(C)[C@H]3CC[C@]12C [campesterol] | 27.9 | 25.5 | 27.9 | 31.3 | 99.1 | 1.0 | 1 |  |  |  |  | 
2 | CC(C)CC[C@@H](O)[C@](C)(O)[C@H]1CC[C@H]2[C@@H]3CCC4=CC(=O)CC[C@]4(C)[C@H]3CC[C@]12C [(20R,22R)-20,22-dihydroxycholest-4-en-3-one] |  | 0.6 | 38.1 | 61.3 | 95 | 4.3 |  |  |  |  |  | 
3 | CC(C)CC[C@@H](O)[C@@H](C)[C@H]1CC[C@H]2[C@@H]3CC=C4C[C@@H](O)CC[C@]4(C)[C@H]3CC[C@]12C [(22R)-22-hydroxy-cholesterol] |  | 14.8 | 80 | 69.5 | 78.6 | 28.0 |  | 80.0 | 69.5 | 42.8 | 28.0 | 
4 | B1 |  |  |  |  |  |  |  |  |  |  |  | 1.0
